What all share (format): biochemical
Assay [1] deals with T1, Human recombinant PDE2A (hPDE2A) (Homo sapiens, UniProt O00408).
T1 construct: His tag (inferred from metal chelate purification); made in house; host or cells: Sf9 insect cells (baculovirus)
As to the kind of experiment: In vitro assay PDE2A (SPA, 3H-cGMP hydrolysis). Conditions: for Emax: read-out: hPDE2A Emax; for IC50: read-out: hPDE2A pIC50 (converted).

The target in assay [2] is T2, Human recombinant PDE10A (hPDE10A) (Homo sapiens, UniProt Q9Y233).
T2 construct: His tag (inferred from metal chelate purification); made in house; host or cells: Sf9 insect cells (baculovirus)
T2 sequence (Q9Y233 267-1055): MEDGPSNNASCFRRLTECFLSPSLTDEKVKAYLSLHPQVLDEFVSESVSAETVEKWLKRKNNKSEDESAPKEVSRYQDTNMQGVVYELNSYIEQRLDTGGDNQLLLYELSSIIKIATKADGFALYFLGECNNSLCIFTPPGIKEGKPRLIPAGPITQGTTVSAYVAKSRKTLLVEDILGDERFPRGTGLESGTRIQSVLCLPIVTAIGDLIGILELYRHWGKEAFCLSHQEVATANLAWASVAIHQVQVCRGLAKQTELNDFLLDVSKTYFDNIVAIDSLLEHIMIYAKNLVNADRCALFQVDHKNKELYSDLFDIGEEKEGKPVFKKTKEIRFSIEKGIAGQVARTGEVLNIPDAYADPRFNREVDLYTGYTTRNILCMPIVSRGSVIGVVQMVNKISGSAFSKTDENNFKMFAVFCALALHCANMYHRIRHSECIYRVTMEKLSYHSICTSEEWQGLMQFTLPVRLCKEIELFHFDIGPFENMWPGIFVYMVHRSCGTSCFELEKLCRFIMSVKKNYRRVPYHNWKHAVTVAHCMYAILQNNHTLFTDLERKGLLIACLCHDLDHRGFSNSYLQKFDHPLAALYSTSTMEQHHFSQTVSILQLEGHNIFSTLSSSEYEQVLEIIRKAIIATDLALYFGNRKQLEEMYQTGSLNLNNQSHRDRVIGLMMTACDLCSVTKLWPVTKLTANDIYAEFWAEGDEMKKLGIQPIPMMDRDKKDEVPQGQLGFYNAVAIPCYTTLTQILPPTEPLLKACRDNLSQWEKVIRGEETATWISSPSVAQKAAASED
As to the kind of experiment: In vitro assay PDE10A, human clone (SPA, 3H-cAMP hydrolysis). Conditions: human clone by default (no (r) mark); for Emax: read-out: hPDE10A2 or rPDE10A2 Emax; for IC50: read-out: hPDE10A2 or rPDE10A2 pIC50 (converted). Put shortly:
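Human recombinant PDE10A was expressed in Sf9 cells via baculovirus and incubated with compound in 50 mM Tris pH 7.8, 8.3 mM MgCl2, 1.7 mM EGTA. Substrate was 60 nM cAMP plus 0.008 μCi 3H-cAMP for 60 min at room temperature, read by SPA scintillation counting. Controls used 1% DMSO, and blanks omitted enzyme.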

In assay [3] the target is T3, Human recombinant PDE3A (hPDE3A) (Homo sapiens, UniProt Q14432).
T3 construct: purchased Scottish Biomedical; host or cells: Sf9 insect cells
T3 sequence (Q14432 whole entry): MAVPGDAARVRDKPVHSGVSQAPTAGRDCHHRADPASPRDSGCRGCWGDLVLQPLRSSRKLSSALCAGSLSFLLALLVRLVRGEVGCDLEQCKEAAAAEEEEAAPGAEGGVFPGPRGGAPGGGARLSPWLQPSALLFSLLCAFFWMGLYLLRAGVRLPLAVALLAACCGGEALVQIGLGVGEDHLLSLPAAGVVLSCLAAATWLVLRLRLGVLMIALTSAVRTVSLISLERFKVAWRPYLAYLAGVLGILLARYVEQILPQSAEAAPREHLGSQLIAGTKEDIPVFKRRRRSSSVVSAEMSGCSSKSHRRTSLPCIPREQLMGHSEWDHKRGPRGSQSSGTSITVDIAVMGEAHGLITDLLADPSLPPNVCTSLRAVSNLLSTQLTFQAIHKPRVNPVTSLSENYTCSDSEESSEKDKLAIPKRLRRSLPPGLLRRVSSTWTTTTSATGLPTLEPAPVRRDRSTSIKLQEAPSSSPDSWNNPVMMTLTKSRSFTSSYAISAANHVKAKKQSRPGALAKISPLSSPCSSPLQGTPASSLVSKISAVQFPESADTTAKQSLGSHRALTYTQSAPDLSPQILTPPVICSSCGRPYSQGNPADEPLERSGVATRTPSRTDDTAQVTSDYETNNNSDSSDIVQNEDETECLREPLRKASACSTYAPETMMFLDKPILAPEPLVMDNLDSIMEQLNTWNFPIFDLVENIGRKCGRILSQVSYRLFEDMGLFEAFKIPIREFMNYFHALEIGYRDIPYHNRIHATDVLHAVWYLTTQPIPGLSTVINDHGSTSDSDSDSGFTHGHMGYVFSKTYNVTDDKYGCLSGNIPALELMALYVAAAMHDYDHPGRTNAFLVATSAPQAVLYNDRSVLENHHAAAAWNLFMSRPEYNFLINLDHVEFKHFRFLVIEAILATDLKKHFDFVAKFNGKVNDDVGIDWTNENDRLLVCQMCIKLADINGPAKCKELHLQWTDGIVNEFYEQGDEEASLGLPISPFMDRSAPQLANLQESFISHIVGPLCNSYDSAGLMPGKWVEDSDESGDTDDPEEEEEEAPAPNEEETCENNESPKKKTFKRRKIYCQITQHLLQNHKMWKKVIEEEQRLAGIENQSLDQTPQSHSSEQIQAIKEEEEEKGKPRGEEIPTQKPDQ
As to the kind of experiment: In vitro assay PDE3A (SPA, 3H-cAMP hydrolysis).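 As to all read-outs here: the method names PDE3A and the table heading PDE3B.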 Conditions: for IC50: hPDE3B pIC50, read-out: pIC50 (converted); for Emax: read-out: hPDE3B Emax, read-out: Emax. Put shortly: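 Human PDE3A, cloned from brain, as partially purified Sf9 lysate. Substrate 0.4 μM cAMP plus [3H]-cAMP (2.4 μCi/ml final) in 50 mM Tris pH 7.8, 8.3 mM MgCl2, 1.7 mM EGTA, 60 min at room temperature, 1% DMSO final. Hydrolysis read by SPA scintillation counting against no-enzyme blanks and DMSO controls.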

Bounds are passed on as bounds.

T1 sequence (O00408 whole entry): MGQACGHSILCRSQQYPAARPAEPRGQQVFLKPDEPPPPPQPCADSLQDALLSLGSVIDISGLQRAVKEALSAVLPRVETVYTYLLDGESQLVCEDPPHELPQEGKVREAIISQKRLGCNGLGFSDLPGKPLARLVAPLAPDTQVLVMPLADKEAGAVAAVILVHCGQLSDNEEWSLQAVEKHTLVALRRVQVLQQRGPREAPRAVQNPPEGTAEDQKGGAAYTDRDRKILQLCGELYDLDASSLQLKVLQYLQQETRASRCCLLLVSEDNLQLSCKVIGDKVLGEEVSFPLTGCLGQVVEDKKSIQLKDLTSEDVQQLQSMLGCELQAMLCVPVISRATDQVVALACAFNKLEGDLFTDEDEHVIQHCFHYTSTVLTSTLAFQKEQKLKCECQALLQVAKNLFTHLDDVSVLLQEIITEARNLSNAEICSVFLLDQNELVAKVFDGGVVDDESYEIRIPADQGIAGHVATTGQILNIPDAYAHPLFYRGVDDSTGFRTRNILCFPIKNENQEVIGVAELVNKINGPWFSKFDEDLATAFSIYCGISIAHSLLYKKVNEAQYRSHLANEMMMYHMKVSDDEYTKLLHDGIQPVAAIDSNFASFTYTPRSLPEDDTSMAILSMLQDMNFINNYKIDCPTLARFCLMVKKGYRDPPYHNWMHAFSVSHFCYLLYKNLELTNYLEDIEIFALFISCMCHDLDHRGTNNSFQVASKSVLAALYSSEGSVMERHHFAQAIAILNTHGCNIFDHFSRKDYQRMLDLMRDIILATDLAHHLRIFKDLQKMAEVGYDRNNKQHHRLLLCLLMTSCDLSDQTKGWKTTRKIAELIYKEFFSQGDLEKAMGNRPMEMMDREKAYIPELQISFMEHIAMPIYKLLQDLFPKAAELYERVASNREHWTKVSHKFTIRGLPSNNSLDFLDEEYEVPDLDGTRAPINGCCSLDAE

For `O=C(c1ccc(F)c(C(F)(F)F)c1)N1[C@H]2CC[C@H](c3cc(C(F)F)nc4ncnn34)[C@@H]1CC2` [Compound 357], the Emax in assay [1] turned out to be 98%; in assay [2] it was 73%; in assay [3] it was 34%. Further, the IC50 in assay [1] is 77.6 nM; in assay [2] it was 3390 nM; in assay [3] it was greater than 10000 nM.

For `Cc1cc(C(=O)N2[C@H]3CC[C@H](c4cc(C(F)F)nc5ncnn45)[C@@H]2CC3)c(C)s1` [Compound 358], the maximal response (Emax) came to 102% in assay [1], 58% in assay [2] and 40% in assay [3]. The IC50 in assay [1] was 26.9 nM; in assay [2], 7940 nM; in assay [3], greater than 10000 nM.

On to `COc1c(F)cc(C(=O)N2[C@H]3CC[C@H](c4cc(C(F)F)nc5ncnn45)[C@@H]2CC3)cc1F` [Compound 359], for which the maximum response (Emax) in assay [1] is 99%; in assay [2], 86%; in assay [3], 71%. The values for the IC50 in assay [1], in assay [2] and in assay [3] were 12 nM, 2140 nM and 3980 nM, respectively.

As to `Cc1cc(C(=O)N2CC[C@@H](C)[C@H](c3cc(C(F)F)nc4ncnn34)C2)cc(CO)n1` [Compound 361], the values for the Emax in assay [1], in assay [2] and in assay [3] were 100%, 92% and 37%, respectively. The IC50 in assay [1] was 2.75 nM; in assay [2], 355 nM; in assay [3], greater than 10000 nM.

Regarding `Cc1cnc(C(=O)N2[C@H]3CC[C@H](c4cc(C(F)F)nc5ncnn45)[C@@H]2CC3)cc1C` [Compound 365], the Emax turned out to be 99% in assay [1], 33% in assay [2] and 24% in assay [3]. Moreover, the IC50 in assay [1] was 63.1 nM; in assay [2], greater than 10000 nM; in assay [3], greater than 10000 nM.

Regarding `O=C(c1cc2n(n1)CCO2)N1[C@H]2CC[C@H](c3cc(C(F)F)nc4ncnn34)[C@@H]1CC2` [Compound 367], the Emax in assay [1] amounted to 97%; in assay [2], 44%; in assay [3], 21%. Also, the IC50 in assay [1] is 437 nM; in assay [2] it was greater than 10000 nM; in assay [3], greater than 10000 nM.

Turning to `C/C(=C\c1ccc(F)cc1)C(=O)N1[C@H]2CC[C@H](c3cc(C(F)F)nc4ncnn34)[C@@H]1CC2` [Compound 370], the Emax worked out at 100% in assay [1], 94% in assay [2] and 87% in assay [3]. In addition, the IC50 in assay [1] was 33.9 nM; in assay [2], 661 nM; in assay [3], 1450 nM.

Consider `C/C(=C\c1ccccc1)C(=O)N1[C@H]2CC[C@H](c3cc(C(F)F)nc4ncnn34)[C@@H]1CC2` [Compound 371], for which the values for the Emax in assay [1], in assay [2] and in assay [3] were 101%, 98% and 96%, respectively. In addition, the figures for the IC50 in assay [1], in assay [2] and in assay [3] were 13.8 nM, 389 nM and 389 nM, respectively.

Take `O=C(c1ccc2sccc2c1)N1[C@H]2CC[C@H](c3cc(C(F)F)nc4ncnn34)[C@@H]1CC2` [Compound 372]: the maximal effect (Emax) was found to be 100% in assay [1], 96% in assay [2] and 90% in assay [3]. Also, the figures for the IC50 in assay [1], in assay [2] and in assay [3] were 1.02 nM, 251 nM and 1350 nM, respectively.

Turning to `Cc1cc2cc(C(=O)N3[C@H]4CC[C@H](c5cc(C(F)F)nc6ncnn56)[C@@H]3CC4)ccc2n1C` [Compound 373], the maximal effect (Emax) in assay [1] was found to be 100%; in assay [2], 99%; in assay [3], 97%. In addition, the IC50 is 2.69 nM in assay [1], 316 nM in assay [2] and 537 nM in assay [3].

As for `Cn1ccc2cc(C(=O)N3[C@H]4CC[C@H](c5cc(C(F)F)nc6ncnn56)[C@@H]3CC4)cc(F)c21` [Compound 374], the Emax was determined as 100% in assay [1], 98% in assay [2] and 97% in assay [3]. Besides, the figures for the IC50 in assay [1], in assay [2] and in assay [3] were 0.741 nM, 182 nM and 741 nM, respectively.

Source of the values: US10947242B2, “[1,2,4]triazolo[1,5and#8208;A]pyrimidine compounds as PDE2 inhibitors” (Janssen Pharmaceutica NV, priority 2016, dated 2021).
